Experiment [1] relates to PC-3. Description: Antiproliferative activity against human PC-3 cells assessed as cell growth inhibition incubated for 48 hrs by MTT assay. It counts as functional, cell-based. The note with it: PC-3, 48 h. In general terms: Tetrazolium dyes change colour on reduction, which living cells bring about.
The target of experiment [2] is Sodium/potassium-transporting ATPase. Briefly: Inhibition of NA+/K+ ATPase (unknown origin) activity. It counts as protein-complex assay, Homo sapiens.
A further experiment has as its target T1, Androgen receptor (Homo sapiens, UniProt P10275).
T1 sequence (P10275 whole entry): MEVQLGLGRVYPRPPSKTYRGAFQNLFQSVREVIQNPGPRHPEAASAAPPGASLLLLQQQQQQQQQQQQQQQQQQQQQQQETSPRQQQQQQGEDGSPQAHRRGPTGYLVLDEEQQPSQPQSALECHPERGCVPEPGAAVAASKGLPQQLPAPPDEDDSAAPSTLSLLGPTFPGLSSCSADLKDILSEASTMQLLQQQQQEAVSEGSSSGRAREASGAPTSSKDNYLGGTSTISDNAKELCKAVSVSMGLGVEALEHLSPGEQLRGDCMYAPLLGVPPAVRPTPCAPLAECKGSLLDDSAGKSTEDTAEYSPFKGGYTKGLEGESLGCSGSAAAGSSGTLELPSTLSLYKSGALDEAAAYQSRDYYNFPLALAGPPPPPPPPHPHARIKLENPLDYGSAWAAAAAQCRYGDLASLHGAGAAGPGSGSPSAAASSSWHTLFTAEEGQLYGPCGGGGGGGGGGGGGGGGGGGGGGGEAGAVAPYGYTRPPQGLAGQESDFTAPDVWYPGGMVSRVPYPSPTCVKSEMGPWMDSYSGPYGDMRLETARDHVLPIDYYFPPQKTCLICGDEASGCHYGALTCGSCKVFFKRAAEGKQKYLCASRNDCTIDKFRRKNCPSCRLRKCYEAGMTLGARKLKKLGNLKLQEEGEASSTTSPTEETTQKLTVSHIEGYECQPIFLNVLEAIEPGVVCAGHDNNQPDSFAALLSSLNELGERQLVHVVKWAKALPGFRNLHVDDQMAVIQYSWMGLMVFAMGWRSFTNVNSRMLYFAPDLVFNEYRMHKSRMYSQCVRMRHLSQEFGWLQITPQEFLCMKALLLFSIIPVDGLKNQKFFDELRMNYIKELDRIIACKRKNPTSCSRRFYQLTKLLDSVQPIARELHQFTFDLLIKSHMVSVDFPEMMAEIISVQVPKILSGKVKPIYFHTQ
Description: Binding affinity to AR (unknown origin) incubated for 4 hrs by fluorescence polarization assay.

For experiment [3], the system named is LNCaP. Description: Antiproliferative activity against human LNCaP cells assessed as cell growth inhibition incubated for 48 hrs by MTT assay. The class given is functional, cell-based.
Experiment [4] relates to MV4-11. Description: Antitumor activity in human MV4-11 cells xenografted in mouse assessed as tumor growth inhibition at 2 mg/kg, iv administered every other day for 21 days relative to control. It counts as functional. Particulars: MV4-11, 504 h, time 21 day. (In general: In xenograft studies the graft and the host belong to different species.)
A further experiment deals with HepG2. Briefly: Antiproliferative activity against human HepG2 cells assessed as cell growth inhibition by MTT assay. It counts as functional, cell-based.
Experiment [5] concerns PC-3. Briefly: Antiproliferative activity against human PC-3 cells assessed as cell growth inhibition by MTT assay. It counts as functional, cell-based.
A further experiment deals with HT-1080. Description: Antiproliferative activity against human HT-1080 cells assessed as cell growth inhibition by MTT assay. The class given is functional, cell-based.
Experiment [6] relates to HeLa. Description: Antiproliferative activity against human HeLa cells assessed as cell growth inhibition by MTT assay. It counts as functional, cell-based.
The test system of the next experiment is Daudi. Briefly: Antiproliferative activity against human Daudi cells assessed as cell growth inhibition by MTT assay. The class given is functional, cell-based.
A further experiment has as its system Jurkat. Description: Antiproliferative activity against human Jurkat cells assessed as cell growth inhibition by MTT assay. It counts as functional, cell-based.
The test system of experiment [7] is MV4-11. Description: Antiproliferative activity against human MV4-11 cells assessed as cell growth inhibition by MTT assay. It counts as functional, cell-based.
Experiment [8] deals with MV4-11. Description: Antitumor activity in human MV4-11 cells xenografted in mouse assessed as tumor growth inhibition at 4 mg/kg, IG administered every other day for 21 days relative to control. It counts as functional. Particulars: MV4-11, po, 504 h, time 21 day.
For the next experiment, the system named is AGS. Briefly: Antiproliferative activity against human AGS cells assessed as cell growth inhibition by MTT assay. It counts as functional, cell-based.
Another experiment concerns NCI-H2228. Description: Antiproliferative activity against human NCI-H2228 cells assessed as cell growth inhibition by MTT assay. It counts as functional, cell-based.
The test system of another experiment is MCF7. Description: Antiproliferative activity against human MCF7 cells assessed as cell growth inhibition by MTT assay. The class given is functional, cell-based.
Experiment [9] relates to LNCaP. Briefly: Antiproliferative activity against human LNCaP cells assessed as cell growth inhibition. It counts as functional, cell-based.
For experiment [10], the system named is PC-3. Description: Antiproliferative activity against human PC-3 cells assessed as cell growth inhibition. It counts as functional, cell-based.
For the next experiment, the system named is DU-145. Description: Antiproliferative activity against human DU-145 cells assessed as cell growth inhibition. It counts as functional, cell-based.
For experiment [11], the target named is Sodium/potassium-transporting ATPase. Briefly: Inhibition of NA+/K+ ATPase (unknown origin) activity assessed as inhibition constant. The class given is protein-complex assay, Homo sapiens.
In the next experiment the test system is A549. Description: Antiproliferative activity against human A549 cells assessed as cell growth inhibition incubated for 72 hrs by MTT assay. It counts as functional, cell-based. The note with it: A549, 72 h.
In experiment [12] the test system is HeLa. Description: Antiproliferative activity against human HeLa cells assessed as cell growth inhibition incubated for 72 hrs by MTT assay. The class given is functional, cell-based.

In general, IC50 refers to the concentration at which inhibition is half-maximal. Usually inhibition in vivo stands for how much of the control response was suppressed. For orientation: Ki means a dissociation constant, usually derived from enzyme kinetics or from competition with a known ligand.

SMILES strings stand for the structures.

With `C[C@]12CC[C@H](O)CC1CCC1=C3CC[C@H](c4ccc(=O)oc4)[C@@]3(C)CCC12` (some centres undefined), the IC50 with PC-3 [1] is 16.4 µM; in [2], 5.6 µM; on Androgen receptor, over 50 µM; with LNCaP [3], 6.8 µM.

`C[C@]12CC[C@H](O)C[C@H]1CC[C@H]1C3=CC[C@H](c4ccc(=S)oc4)[C@@]3(C)CC[C@@H]12`: it took 35.8 µM to reach half-maximal inhibition in experiment [2] (IC50).

Consider `C[C@]12CC[C@H](OC(=O)NC3CCNCC3)C[C@H]1CC[C@@H]1[C@@H]2CC[C@]2(C)[C@@H](c3ccc(=O)oc3)CC[C@]12O`, for which, in the experiment on MV4-11 [4], the inhibition in vivo at 2 mg/kg came out at 100%. The IC50 in the experiment with HepG2, with PC-3 [5], with HT-1080, in the experiment with HeLa [6], with Daudi and in the experiment on Jurkat was 0.3 nM throughout. Further, the IC50 with MV4-11 [7], in the experiment with AGS, in the experiment with NCI-H2228 and in the experiment with MCF7 was 0.3 nM each time. In addition, in the experiment on MV4-11 [8], the inhibition in vivo at 4 mg/kg is 100%.

The compound `C[C@]12CC[C@H](O)CC1CCC1C3=CC[C@H](c4ccc(=O)oc4)[C@@]3(C)CCC12` (some centres undefined) had an IC50 on Androgen receptor of over 50 µM.

For the compound `C[C@]12CC[C@H](OC(=O)N3CCNCC3)C[C@H]1CC[C@@H]1[C@@H]2CC[C@]2(C)[C@@H](c3ccc(=O)oc3)CC[C@]12O`, the IC50 in the experiment with HeLa [6] is 0.77 nM.

With `CN(C)C(=O)/C=C/C1=CO[C@]23CCC1[C@@]2(C)CC[C@H]1[C@H]3CC[C@@H]2C[C@@H](O)CC[C@@]21C`, the IC50 in the experiment on LNCaP [9], in the experiment on PC-3 [10] and in the experiment on DU-145 was 10 µM each time. Moreover, in [11], the Ki came to 70 µM.

Turning to `C[C@]12CC[C@H](O)C[C@H]1CC[C@@H]1[C@@H]2CC[C@]2(C)[C@@H](c3ccc(=O)[nH]c3)CC[C@]12O`, the IC50 in the experiment on LNCaP [9], in the experiment with PC-3 [10] and with DU-145 was 10 µM throughout. In experiment [11], the Ki was determined as 70 µM.

As for `C[C@]12CC[C@H](OC(=O)C3CCNCC3)C[C@H]1CC[C@@H]1[C@@H]2CC[C@]2(C)[C@@H](c3ccc(=O)oc3)CC[C@]12O`, the IC50 with A549 worked out at 0.34 nM; in the experiment on HeLa [12] it was 0.76 nM.

Values taken from ChEMBL document CHEMBL5244231, “Total synthesis, chemical modification and structure-activity relationship of bufadienolides” (Eur J Med Chem, 2020).
